Test results published in PMC8095314 (ChemistryOpen, 2021).
Where “and” joins values, the source holds several entries; their conditions need not be identical. Identical values can stand only once.

Experiments:
[1] = biological target: recombinant human CA II (Homo sapiens, UniProt P00918); conditions: read-out: Kd CA II (FTSA); observed, pH 7.0, 37 °C; cited from earlier work
[2] = biological target: T1, recombinant human CA XII (Homo sapiens, UniProt O43570); format: binding; conditions: from FTSA Kd
[3] = biological target: T1, recombinant human CA XII; conditions: read-out: Kd CA XII (FTSA); observed, pH 7.0, 37 °C; cited from earlier work
[4] = biological target: chCA XII (Homo sapiens, UniProt P00918, A65S/F130A/I91T/L203N/N67K/V134S); assay: Fluorescent thermal shift assay
[5] = system: His64; assay: kinetics; conditions: cited from earlier work

T1 sequence (O43570 25-354): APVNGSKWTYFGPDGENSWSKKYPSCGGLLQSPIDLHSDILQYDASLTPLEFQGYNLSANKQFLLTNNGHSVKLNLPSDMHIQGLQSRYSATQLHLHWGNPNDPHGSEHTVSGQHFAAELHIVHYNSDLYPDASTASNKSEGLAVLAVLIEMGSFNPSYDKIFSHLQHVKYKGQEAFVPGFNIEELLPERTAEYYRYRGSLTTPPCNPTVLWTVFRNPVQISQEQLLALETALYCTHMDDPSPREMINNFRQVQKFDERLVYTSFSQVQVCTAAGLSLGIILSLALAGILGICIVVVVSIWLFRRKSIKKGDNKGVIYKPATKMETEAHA

Kd ratio CA XII/CA II [2]	Kd [4] [µM]	Compound	Kd [1] [nM]	Kd [3] [µM]	pKa [5]
8.2	6.7	NS(=O)(=O)c1ccc2ccccc2c1 [Compound 37, naphthalene‐2‐sulfonamide]	770	6.3	–
–	–	Carbonic anhydrase XII (CA XII) (Homo sapiens)	–	–	8.0±0.2 and 7.5±0.1
